One test has as its system 229E. The experiment in a line: 229E MRC5 CPE assay (cytopathic experiment). It counts as cell-based, coronavirus 229E (HCoV-229E). How it is done:
(§1) Cells were seeded into microplates at a certain density and cultured overnight in a incubator at 5% CO2, 37° C. The next day, double-diluted compound and virus were added. It was set up a cell control group (cells without treatment with a compound or virus infection), a virus control group (cells infected with virus, no compound treatment) and a culture medium control group (medium only). Cells were cultured in the incubator for 3 days (229E) or 7 days (OC43). Cytotoxicity experiments were performed under the same conditions as antiviral experiments, but without virus infection. Cell viability was tested using a cell viability assay kit Cell Titer Glo (Promega).
(§2) The antiviral activity and cytotoxicity of the compounds were expressed by the inhibition rate (%) and cell viability (%) of the compounds against virus-induced cytopathic effects at different concentrations, respectively. Nonlinear fitting analysis on the inhibition rate and cell viability of the compounds were carried out with the GraphPad Prism, and the half effective concentration (EC50), the […] effective concentration (EC90), the half cytotoxic concentration (CC50) and the 90% cytotoxic concentration of the compound […] values were calculated.

For another test, the system named is OC43. The experiment in a line: OC43 Huh7 CPE assay (cytopathic experiment). The format is cell-based, coronavirus OC43 (HCoV-OC43). As to conditions: for EC50: read-out: OC43 Huh7 CPE assay (μM) EC50; for EC90: read-out: OC43 Huh7 CPE assay (μM) EC90. The method, then: as §1, §2
For orientation: Cytopathic effects are the visible damage that an infection or toxin causes in cultured cells.

[1] abbreviates: Human coronavirus 229E, MRC5, 72 h, read-out: 229E MRC5 CPE assay (μM) EC50.
[2] abbreviates: Human coronavirus 229E, MRC5, 72 h, read-out: 229E MRC5 CPE assay (μM) EC90.
Setting [3] is: Betacoronavirus 1, OC43, Huh-7, 168 h.
Where [4] appears, read: Huh7 cells, OC43 virus, 7 days, Cell Titer Glo.
Where [5] appears, read: Human coronavirus 229E, MRC5, 72 h; read-out: 229E MRC5 CPE assay (μM) EC50.
[6] abbreviates: Human coronavirus 229E, MRC5, 72 h; read-out: 229E MRC5 CPE assay (μM) EC90.

Each structure is given as a SMILES string. Read-outs that look alike come from different tables or passages of the source.

Regarding `CCCC(CCC)C(=O)OC(C)O[P@]1(=O)OC[C@H]2O[C@@](C#N)(c3ccc4c(N)ncnn34)[C@H](O)[C@@H]2O1` (stereo partly shown) [Compound 141], the EC50 in the test on 229E (setting [1]) and in the test on OC43 (setting [3]) was over 0.5 µM in each case. Moreover, the EC90 in the test on 229E (setting [2]) and in the test with OC43 (setting [3]) was over 0.5 µM throughout.

Turning to `CCCC(CCC)C(=O)OC(C)O[P@]1(=O)OC[C@H]2O[C@@](C#N)(c3ccc4c(N)ncnn34)[C@H](O)[C@@H]2O1` (stereo partly shown) [Compound 142], the EC50 (in general, the concentration needed to bring the measured effect to its halfway point) is over 0.5 µM in the test with 229E (read-out: 229E MRC5 CPE assay (μM) EC50; MRC5 cells, 229E virus, 3 days, Cell Titer Glo) and over 0.5 µM with OC43 (setting [4]). Further, the EC90 (usually the concentration at which the effect reaches the 90% level) in the test on 229E (read-out: 229E MRC5 CPE assay (μM) EC90; MRC5 cells, 229E virus, 3 days, Cell Titer Glo) is over 0.5 µM; with OC43 (setting [4]) it was over 0.5 µM.

Consider `CCCC(CCC)C(=O)OCO[P@]1(=S)OC[C@H]2O[C@@](C#N)(c3ccc4c(N)ncnn34)[C@H](O)[C@@H]2O1` [Compound 143], for which the EC50 in the test with 229E (setting [5]) and in the test with OC43 (setting [3]) was over 0.5 µM in each case. The EC90 in the test on 229E (setting [6]) and with OC43 (setting [3]) was over 0.5 µM throughout.

For the molecule `CCCC(CCC)C(=O)OCO[P@@]1(=S)OC[C@H]2O[C@@](C#N)(c3ccc4c(N)ncnn34)[C@H](O)[C@@H]2O1` [Compound 144], the EC50 with 229E (setting [5]) and in the test with OC43 (setting [3]) was over 0.5 µM each time. In addition, the EC90 in the test on 229E (setting [6]) and in the test with OC43 (setting [3]) was over 0.5 µM each time.

As for `CC(C)OC(=O)OCO[P@@]1(=O)OC[C@H]2O[C@@](C#N)(c3ccc4c(N)ncnn34)[C@H](O)[C@@H]2O1` [Compound 145], the EC50 is under 0.1 µM in the test with 229E (setting [1]) and 0.1 to 0.5 µM in the test on OC43 (setting [3]). Besides, the EC90 in the test on 229E (setting [2]) and with OC43 (setting [3]) was 0.1 to 0.5 µM in each case.

For `CC(C)OC(=O)CO[P@]1(=O)OC[C@H]2O[C@@](C#N)(c3ccc4c(N)ncnn34)[C@H](O)[C@@H]2O1` [Compound 146], the EC50 in the test on 229E (setting [1]) and in the test with OC43 (setting [3]) was over 0.5 µM throughout. Moreover, the EC90 in the test with 229E (setting [2]) and in the test on OC43 (setting [3]) was over 0.5 µM each time.

Regarding `CC(C)OC(=O)CO[P@@]1(=O)OC[C@H]2O[C@@](C#N)(c3ccc4c(N)ncnn34)[C@H](O)[C@@H]2O1` [Compound 147], the EC50 in the test with 229E (setting [1]) and with OC43 (setting [3]) was over 0.5 µM each time. The EC90 in the test with 229E (setting [2]) and in the test with OC43 (setting [3]) was over 0.5 µM in each case.

Regarding `CC(C)OC(=O)CO[P@]1(=S)OC[C@H]2O[C@@](C#N)(c3ccc4c(N)ncnn34)[C@H](O)[C@@H]2O1` [Compound 149], the EC50 in the test with 229E (setting [5]) and in the test on OC43 (setting [3]) was over 0.5 µM throughout. In addition, the EC90 with 229E (setting [6]) and with OC43 (setting [3]) was over 0.5 µM in each case.

For the molecule `CC(C)OC(=O)CO[P@@]1(=S)OC[C@H]2O[C@@](C#N)(c3ccc4c(N)ncnn34)[C@H](O)[C@@H]2O1` [Compound 150], the EC50 with 229E (setting [5]) and with OC43 (setting [3]) was over 0.5 µM in each case. Further, the EC90 with 229E (setting [6]) and with OC43 (setting [3]) was over 0.5 µM each time.

On to `CCCC(CCC)C(=O)OCNc1ncnn2c([C@]3(C#N)O[C@H](COP(=O)(OCOC(=O)C(CCC)CCC)OCOC(=O)C(CCC)CCC)[C@@H](O)[C@H]3O)ccc12` [Compound 155], for which the values for the EC50 in the test on 229E (setting [1]) and with OC43 (setting [3]) were 0.1 to 0.5 µM and over 0.5 µM, respectively. Besides, the EC90 in the test on 229E (setting [2]) and with OC43 (setting [3]) was over 0.5 µM throughout.

Consider `CCCN(CCC)S(=O)(=O)c1ccc(C(=O)OCO[P@@]2(=O)OCC3O[C@@](C#N)(c4ccc5c(N)ncnn45)[C@H](O)[C@@H]3O2)cc1` (stereo partly shown) [Compound 156], for which the EC50 with 229E (setting [1]) is 0.1 to 0.5 µM; in the test with OC43 (setting [3]) it was over 0.5 µM. Also, the EC90 with 229E (setting [2]) and in the test on OC43 (setting [3]) was over 0.5 µM in each case.

As for `CCCN(CCC)S(=O)(=O)c1ccc(C(=O)OCO[P@]2(=O)OCC3O[C@@](C#N)(c4ccc5c(N)ncnn45)[C@H](O)[C@@H]3O2)cc1` (stereo partly shown) [Compound 157], the EC50 was 0.1 to 0.5 µM in the test on 229E (setting [1]) and over 0.5 µM with OC43 (setting [3]). For the same molecule, the EC90 in the test with 229E (setting [2]) and with OC43 (setting [3]) was over 0.5 µM in each case.

Consider `CCCN(CCC)S(=O)(=O)c1ccc(C(=O)O[C@@H]2[C@@H]3OP(=O)(O)OC[C@H]3O[C@@]2(C#N)c2ccc3c(N)ncnn23)cc1` [Compound 158], for which the EC50 with 229E (setting [1]) and in the test on OC43 (setting [3]) was over 0.5 µM throughout. In addition, the concentration for an effect of 90% (EC90) with 229E (setting [2]) and in the test on OC43 (setting [3]) was over 0.5 µM each time.
